Experimental findings from patent US6864286B2, “Inhibitors of the EGF-receptor tyrosine kinase and methods for their use” (Parker Hughes Institute, priority 1998, dated 2005) are described below.

The target of one test is T1, EGFR tyrosine kinase (Homo sapiens, UniProt P00533).
T1 construct: anti-EGFR immunoprecipitates from lysates of MDA-MB-231 human breast cancer cells; endogenous in cells; host or cells: MDA-MB-231 (ATCC HTB-26)
The test is described as follows: Cell-free EGFR immune complex kinase assay. In kind it is biochemical. To be noted: EGFR immunoprecipitated from MDA-MB-231 lysates, 1 hour incubation, read-out: EGFR Inhibition IC50. The procedure: (§1) For EGFR immune complex kinase assays, 24-hours after treatment with leflunomide analogs, MDA-MB-231 breast cancer cells were stimulated with 20 ng/mL EGF for 5 minutes, lysed in 1% Nonidet-P-40 buffer, and cell lysates were immunoprecipitated with an anti-EGFR antibody reactive with the sequence Ala^351-Asp^364 of the human EGFR (Upstate Biotechnology Inc. [UBI] Catalog # 05-104) (Uckun, F. M., et al. Clin. Can. Res. 1998, 4, 901). EGFR immune complexes were examined for tyrosine phosphorylation by Western blot analysis, as described by Uckun, F. M., et al. Clin. Can. Res. 1998, 4, 901. All anti-phosphotyrosine Western blots were subjected to densitometric scanning using the automated AMBIS system (Automated Microbiology System, Inc., San Diego, Calif.) and for each time point a % inhibition value was determined by comparing the density ratios of the tyrosine phosphorylated EGFR protein bands to those of the baseline sample and using the formula: % Inhibition=100−100×[Density of tyrosine phosphorylated EGFR band]test sample/[Density of tyrosine phosphorylated EGFR band]baseline control sample. The IC50 values were determined using an Inplot program (Graphpad Software, Inc., San Diego, Calif.).
In other experiments, MDA-MB-231 cells were stimulated with 10 ng/ml EGF prior to immunoprecipitation of the EGFR. EGFR immune complexes were incubated for 1 hour at room temperature with various LFM analogs and tyrosine kinase assays were performed in the presence of [γ-^32P]-ATP, as previously described (Uckun, F. M., et al. Clin. Can. Res. 1998, 4, 901; Narla, R. K., et al. Clin. Can. Res 1998, 1405; Uckun, F. M., et al. Science 1996, 22, 1096; Uckun, F. M., et al. Science 1995, 267, 886). The kinase assay gels were analyzed both by autoradiography and using the BioRad Storage Phosphor Imager System (BioRad, Hercules, Calif.) for quantitative scanning.

A further test deals with T2, JAK3 (Homo sapiens, UniProt P52333).
T2 construct: made in house; host or cells: Sf21 insect cells (baculovirus)
T2 sequence (P52333 1-1124): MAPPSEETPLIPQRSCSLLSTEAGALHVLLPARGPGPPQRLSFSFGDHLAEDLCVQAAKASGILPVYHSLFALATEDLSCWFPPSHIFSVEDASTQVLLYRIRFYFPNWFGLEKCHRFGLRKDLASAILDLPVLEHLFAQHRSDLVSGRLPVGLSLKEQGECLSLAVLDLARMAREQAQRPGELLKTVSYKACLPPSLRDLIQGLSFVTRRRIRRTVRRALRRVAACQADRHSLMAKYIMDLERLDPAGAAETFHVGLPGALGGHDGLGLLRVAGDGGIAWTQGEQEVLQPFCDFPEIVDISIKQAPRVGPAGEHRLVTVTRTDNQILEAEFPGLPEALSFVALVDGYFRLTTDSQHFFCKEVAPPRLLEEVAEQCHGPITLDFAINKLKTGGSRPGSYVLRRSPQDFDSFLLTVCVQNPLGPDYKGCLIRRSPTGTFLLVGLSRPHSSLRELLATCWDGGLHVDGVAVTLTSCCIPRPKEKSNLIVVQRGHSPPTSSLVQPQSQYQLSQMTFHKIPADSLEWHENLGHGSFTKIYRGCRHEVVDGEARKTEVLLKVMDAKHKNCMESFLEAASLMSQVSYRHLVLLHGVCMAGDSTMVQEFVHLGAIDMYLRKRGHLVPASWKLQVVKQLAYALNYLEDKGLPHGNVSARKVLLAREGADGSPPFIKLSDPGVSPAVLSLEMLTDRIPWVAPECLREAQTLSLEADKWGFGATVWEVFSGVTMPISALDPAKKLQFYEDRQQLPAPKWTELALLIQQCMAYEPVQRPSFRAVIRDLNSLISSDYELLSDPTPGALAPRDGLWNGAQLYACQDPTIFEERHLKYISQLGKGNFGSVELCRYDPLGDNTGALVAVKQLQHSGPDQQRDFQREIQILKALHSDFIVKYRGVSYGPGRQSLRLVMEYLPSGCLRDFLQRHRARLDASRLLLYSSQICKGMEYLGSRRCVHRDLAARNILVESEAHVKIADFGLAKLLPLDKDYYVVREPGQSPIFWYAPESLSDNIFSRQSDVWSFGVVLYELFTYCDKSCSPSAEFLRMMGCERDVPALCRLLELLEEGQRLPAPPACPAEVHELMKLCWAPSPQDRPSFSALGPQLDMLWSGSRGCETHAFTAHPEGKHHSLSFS
The test is described as follows: Cell-free JAK3 immune complex kinase assay. It is filed as biochemical. The following applies: for effect on enzymatic activity of JAK3: at concentrations as high as 350 μM. The procedure:
Immunoprecipitations, immune-complex protein kinase assays, and immunoblotting using the ECL chemiluminescence detection system (Amersham Life Sciences) were conducted as described previously (Vassilev, A., et al. J. Biol. Chem. 1998, in press; Goodman, P. A., et al. J. Biol. Chem. 1998, 273, 17742; Mahajan, S., et al. Mol. Cell. Biol. 1995, 15, 5304; Uckun, F. M., et al. Science 1996, 22, 1096).

In test [1] the target is T3, EGFR tyrosine kinase in MDA-MB-231 cells (Homo sapiens, UniProt P00533).
T3 construct: anti-EGFR immunoprecipitates from lysates of MDA-MB-231 human breast cancer cells; endogenous in cells; host or cells: MDA-MB-231 (ATCC HTB-26)
T3 sequence (P00533 25-1210): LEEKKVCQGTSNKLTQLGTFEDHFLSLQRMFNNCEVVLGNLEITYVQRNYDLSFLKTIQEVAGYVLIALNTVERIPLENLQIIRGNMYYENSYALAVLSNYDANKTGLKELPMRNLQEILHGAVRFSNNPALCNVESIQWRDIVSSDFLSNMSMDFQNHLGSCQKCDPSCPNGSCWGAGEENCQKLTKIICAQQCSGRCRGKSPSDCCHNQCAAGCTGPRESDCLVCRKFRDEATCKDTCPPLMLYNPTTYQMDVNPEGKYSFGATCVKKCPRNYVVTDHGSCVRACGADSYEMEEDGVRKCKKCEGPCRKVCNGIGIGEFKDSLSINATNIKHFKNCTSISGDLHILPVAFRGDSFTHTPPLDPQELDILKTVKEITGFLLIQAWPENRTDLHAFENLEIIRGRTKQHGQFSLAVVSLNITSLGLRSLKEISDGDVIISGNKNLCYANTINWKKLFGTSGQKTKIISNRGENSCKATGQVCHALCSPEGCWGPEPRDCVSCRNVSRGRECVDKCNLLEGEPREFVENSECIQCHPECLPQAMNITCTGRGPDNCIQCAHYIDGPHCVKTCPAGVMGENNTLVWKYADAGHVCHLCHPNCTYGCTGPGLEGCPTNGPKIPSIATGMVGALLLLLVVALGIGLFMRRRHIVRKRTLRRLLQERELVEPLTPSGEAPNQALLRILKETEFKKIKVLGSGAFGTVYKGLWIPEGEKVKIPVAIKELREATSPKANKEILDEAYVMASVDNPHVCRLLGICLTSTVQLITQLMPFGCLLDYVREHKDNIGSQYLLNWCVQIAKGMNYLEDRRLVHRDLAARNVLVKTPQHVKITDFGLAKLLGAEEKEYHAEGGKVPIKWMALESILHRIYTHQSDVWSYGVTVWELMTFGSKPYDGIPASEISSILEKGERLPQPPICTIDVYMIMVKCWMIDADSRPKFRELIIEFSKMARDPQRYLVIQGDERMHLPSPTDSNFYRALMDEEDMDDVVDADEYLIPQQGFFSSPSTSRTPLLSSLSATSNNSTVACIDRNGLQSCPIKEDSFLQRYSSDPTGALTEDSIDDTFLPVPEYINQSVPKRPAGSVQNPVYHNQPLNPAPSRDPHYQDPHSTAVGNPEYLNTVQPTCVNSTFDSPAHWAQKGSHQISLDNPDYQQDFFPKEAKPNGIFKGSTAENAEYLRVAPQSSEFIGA
The test can be described thus: Cellular EGFR autophosphorylation, anti-phosphotyrosine Western blot. It is filed as cell-based. The following applies: 24 hour exposure. On the procedure: as §1
The effects of LFM and LFM analogs on the enzymatic activity of the EGFR tyrosine kinase in breast cancer cells were also examined. […]

T1 sequence (P00533 25-1210): as above

For `CC(O)=C(C#N)C(=O)Nc1ccc(C(F)(F)F)cc1` [LFM, α-Cyano-β-hydroxy-β-methyl-N-[4-(trifluoromethyl)phenyl]-propenamide, reference compound], the IC50 at EGFR tyrosine kinase was 5.4 µM. The “effect on enzymatic activity of JAK3” value on JAK3 was “did not affect the enzymatic activity”. The “tyrosine phosphorylation of the EGFR after EGF stimulation” value in test [1] is reported as “to a lesser extent”.
Take `C/C(O)=C(\C#N)C(=O)Nc1ccc(OC(F)(F)F)cc1` [LFM-A12, α-Cyano-β-hydroxy-β-methyl-N-[4-(trifluoromethoxy)phenyl]-propenamide]: the IC50 at EGFR tyrosine kinase was 1.7 µM; at JAK3 (JAK3, cell-free, read-out: Inhibition IC50), greater than 350 µM. Besides, the “effect on enzymatic activity of JAK3” value on JAK3 is listed as “did not affect the enzymatic activity”. Moreover, the “tyrosine phosphorylation of the EGFR after EGF stimulation” value in test [1] was “decreased tyrosine phosphorylation of the EGFR”.
